In PubChem BioAssay (NCI):
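These data come from cells grown in 96-well plates and exposed to compound for 48 hours at five concentrations. Abbreviation: GI50, concentration required for 50% inhibition of growth. TGI: concentration producing complete growth inhibition.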

How the values were obtained:
Experiment in all cases: NCI anticancer screen, dose series, 48 h
A498 renal = tested on: A498 renal
NCI-H23 lung = tested on: NCI-H23 lung
SK-OV-3 ovarian = tested on: SK-OV-3 ovarian
SN12C renal = tested on: SN12C renal
SK-MEL-2 melanoma = tested on: SK-MEL-2 melanoma
UACC-257 melanoma = tested on: UACC-257 melanoma
LOX IMVI melanoma = tested on: LOX IMVI melanoma
NCI-H522 lung = tested on: NCI-H522 lung
NCI/ADR-RES ovarian = tested on: NCI/ADR-RES ovarian
SR leukemia = tested on: SR leukemia
COLO 205 colon = tested on: COLO 205 colon
K-562 leukemia = tested on: K-562 leukemia
UACC-62 melanoma = tested on: UACC-62 melanoma
KM12 colon = tested on: KM12 colon
NCI-H226 lung = tested on: NCI-H226 lung
MALME-3M melanoma = tested on: MALME-3M melanoma
SW-620 colon = tested on: SW-620 colon
OVCAR-8 ovarian = tested on: OVCAR-8 ovarian
U251 CNS = tested on: U251 CNS
OVCAR-4 ovarian = tested on: OVCAR-4 ovarian
M14 melanoma = tested on: M14 melanoma
MOLT-4 leukemia = tested on: MOLT-4 leukemia
SK-MEL-5 melanoma = tested on: SK-MEL-5 melanoma
SF-539 CNS = tested on: SF-539 CNS
MCF7 breast = tested on: MCF7 breast
HS 578T breast = tested on: HS 578T breast
UO-31 renal = tested on: UO-31 renal
BT-549 breast = tested on: BT-549 breast
786-0 renal = tested on: 786-0 renal
MDA-MB-231 breast = tested on: MDA-MB-231 breast
ACHN renal = tested on: ACHN renal
HCT-116 colon = tested on: HCT-116 colon
TK-10 renal = tested on: TK-10 renal
OVCAR-3 ovarian = tested on: OVCAR-3 ovarian
A549 NSCLC = tested on: A549 NSCLC
HT29 colon = tested on: HT29 colon
IGROV1 ovarian = tested on: IGROV1 ovarian
SF-295 CNS = tested on: SF-295 CNS
T-47D breast = tested on: T-47D breast
HOP-62 NSCLC = tested on: HOP-62 NSCLC
SNB-19 CNS = tested on: SNB-19 CNS
CCRF-CEM leukemia = tested on: CCRF-CEM leukemia
DU-145 prostate = tested on: DU-145 prostate
RPMI-8226 leukemia = tested on: RPMI-8226 leukemia
SK-MEL-28 melanoma = tested on: SK-MEL-28 melanoma
CAKI-1 renal = tested on: CAKI-1 renal
OVCAR-5 ovarian = tested on: OVCAR-5 ovarian
MDA-MB-435 = tested on: MDA-MB-435
RXF 393 renal = tested on: RXF 393 renal
SNB-75 CNS = tested on: SNB-75 CNS
NCI-H460 lung = tested on: NCI-H460 lung
HCT-15 colon = tested on: HCT-15 colon
HCC-2998 colon = tested on: HCC-2998 colon
PC-3 prostate = tested on: PC-3 prostate
HL-60(TB) leukemia = tested on: HL-60(TB) leukemia
HOP-92 NSCLC = tested on: HOP-92 NSCLC
SF-268 CNS = tested on: SF-268 CNS

Question: Which results are given for O=CN/N=C/c1ccc(Cl)c([N+](=O)[O-])c1?
Answer: GI50 (A498 renal): 2.14 µM; TGI (A498 renal): 90.5 µM; GI50 (NCI-H23 lung): 0.396 µM; TGI (NCI-H23 lung): 48.1 µM; GI50 (SK-OV-3 ovarian): 7.33 µM; TGI (SK-OV-3 ovarian): > 100 µM; GI50 (SN12C renal): 0.503 µM; TGI (SN12C renal): 21.9 µM; GI50 (SK-MEL-2 melanoma): 5.43 µM; TGI (SK-MEL-2 melanoma): 22.6 µM; GI50 (UACC-257 melanoma): 0.618 µM; TGI (UACC-257 melanoma): 27.4 µM; GI50 (LOX IMVI melanoma): 0.111 µM; TGI (LOX IMVI melanoma): 13.7 µM; GI50 (NCI-H522 lung): 0.451 µM; TGI (NCI-H522 lung): 19.9 µM; GI50 (NCI/ADR-RES ovarian): > 100 µM; TGI (NCI/ADR-RES ovarian): > 100 µM; GI50 (SR leukemia): 0.126 µM; TGI (SR leukemia): 22.6 µM; GI50 (COLO 205 colon): 0.11 µM; TGI (COLO 205 colon): 15.4 µM; GI50 (K-562 leukemia): 0.197 µM; TGI (K-562 leukemia): > 100 µM; GI50 (UACC-62 melanoma): 0.327 µM; TGI (UACC-62 melanoma): 14.6 µM; GI50 (KM12 colon): 0.228 µM; TGI (KM12 colon): 15.1 µM; GI50 (NCI-H226 lung): 0.725 µM; TGI (NCI-H226 lung): > 100 µM; GI50 (MALME-3M melanoma): 3.19 µM; TGI (MALME-3M melanoma): 33 µM; GI50 (SW-620 colon): 0.0596 µM; TGI (SW-620 colon): > 100 µM; GI50 (OVCAR-8 ovarian): 0.567 µM; TGI (OVCAR-8 ovarian): > 100 µM; GI50 (U251 CNS): 0.0617 µM; TGI (U251 CNS): 25.8 µM; GI50 (OVCAR-4 ovarian): 0.684 µM; TGI (OVCAR-4 ovarian): 60.6 µM; GI50 (M14 melanoma): 0.513 µM; TGI (M14 melanoma): > 46.5 µM; GI50 (MOLT-4 leukemia): 0.577 µM; TGI (MOLT-4 leukemia): 46.8 µM; GI50 (SK-MEL-5 melanoma): 0.402 µM; TGI (SK-MEL-5 melanoma): 3.7 µM; GI50 (SF-539 CNS): 0.309 µM; TGI (SF-539 CNS): 13.7 µM; GI50 (MCF7 breast): 0.351 µM; TGI (MCF7 breast): 58.6 µM; GI50 (HS 578T breast): 9.41 µM; TGI (HS 578T breast): 40.7 µM; GI50 (UO-31 renal): 54.1 µM; TGI (UO-31 renal): > 100 µM; GI50 (BT-549 breast): 3.31 µM; TGI (BT-549 breast): 20 µM; GI50 (786-0 renal): 0.544 µM; TGI (786-0 renal): > 100 µM; GI50 (MDA-MB-231 breast): 1.54 µM; TGI (MDA-MB-231 breast): 27.3 µM; GI50 (ACHN renal): 5.17 µM; TGI (ACHN renal): > 100 µM; GI50 (HCT-116 colon): 0.0536 µM; TGI (HCT-116 colon): > 100 µM; GI50 (TK-10 renal): 2.4 µM; TGI (TK-10 renal): 71.3 µM; GI50 (OVCAR-3 ovarian): 0.555 µM; TGI (OVCAR-3 ovarian): 20.7 µM; GI50 (A549 NSCLC): 0.337 µM; TGI (A549 NSCLC): > 100 µM; GI50 (HT29 colon): 0.0457 µM; TGI (HT29 colon): 14.4 µM; GI50 (IGROV1 ovarian): 0.0728 µM; TGI (IGROV1 ovarian): 21.9 µM; GI50 (SF-295 CNS): 0.623 µM; TGI (SF-295 CNS): > 79.9 µM; GI50 (T-47D breast): 2.92 µM; TGI (T-47D breast): 51.7 µM; GI50 (HOP-62 NSCLC): 1.47 µM; TGI (HOP-62 NSCLC): 49.7 µM; GI50 (SNB-19 CNS): 0.518 µM; TGI (SNB-19 CNS): 46.6 µM; GI50 (CCRF-CEM leukemia): 0.243 µM; TGI (CCRF-CEM leukemia): 72.6 µM; GI50 (DU-145 prostate): 0.401 µM; TGI (DU-145 prostate): > 100 µM; GI50 (RPMI-8226 leukemia): 0.439 µM; TGI (RPMI-8226 leukemia): 17.4 µM; GI50 (SK-MEL-28 melanoma): 0.899 µM; TGI (SK-MEL-28 melanoma): 24 µM; GI50 (CAKI-1 renal): 4.04 µM; TGI (CAKI-1 renal): > 100 µM; GI50 (OVCAR-5 ovarian): 0.189 µM; TGI (OVCAR-5 ovarian): > 100 µM; GI50 (MDA-MB-435): 0.0611 µM; TGI (MDA-MB-435): 18.6 µM; GI50 (RXF 393 renal): 0.399 µM; TGI (RXF 393 renal): > 100 µM; GI50 (SNB-75 CNS): 0.787 µM; TGI (SNB-75 CNS): 31.5 µM; GI50 (NCI-H460 lung): 0.0427 µM; TGI (NCI-H460 lung): 14.8 µM; GI50 (HCT-15 colon): 4.14 µM; TGI (HCT-15 colon): > 100 µM; GI50 (HCC-2998 colon): 0.37 µM; TGI (HCC-2998 colon): 19.6 µM; GI50 (PC-3 prostate): 0.0249 µM; TGI (PC-3 prostate): 13.2 µM; GI50 (HL-60(TB) leukemia): 0.125 µM; TGI (HL-60(TB) leukemia): 18.4 µM; GI50 (HOP-92 NSCLC): 1.24 µM; TGI (HOP-92 NSCLC): 21.1 µM; GI50 (SF-268 CNS): 0.172 µM; TGI (SF-268 CNS): 18.4 µM
